Measurements as given in the supplement of paper PMC4862054.

Tests used:
SK-BR-3 [1] = experiment: drug sensitivity score (DSS), CellTiter-Glo (DSS (AUC-based score)); higher = stronger drug effect (viability inhibition or cytotoxicity); extreme values may be limits of the assay; conditions: incubation time: 72 h
Summary of the method: (§1)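 Breast cancer cell lines, seeded as 20 µl suspension, were incubated 72 h with compound in 384-well plates at 5 concentrations in 10-fold steps over a 10,000-fold range set for each compound. Fluorescence from CellTox Green was read at 485/520 nm before CellTiter-Glo luminescence, which was read after 10 min at room temperature. Every plate was normalised to 0.1 % DMSO and a positive kill control, and the drug sensitivity score was taken from the area under the fitted dose-response curve.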

HCC1599 [2] = experiment: as above; conditions: incubation time: 72 h
Summary of the method: as §1

MDA-MB-436 [3] = experiment: as above; conditions: incubation time: 72 h
Summary of the method: as §1

CAL-148 [4] = experiment: as above; conditions: incubation time: 72 h
Summary of the method: as §1

MCF-10A = experiment: as above; conditions: incubation time: 72 h
Summary of the method: as §1

MDA-MB-468 [5] = experiment: as above; conditions: incubation time: 72 h
Summary of the method: as §1

HCC1143 [6] = experiment: as above; conditions: incubation time: 72 h
Summary of the method: as §1

CAL-120 = experiment: normalised viability (% of control), CellTiter-Blue; higher = more viable cells (about 100 = DMSO control); conditions: 10 nM; incubation time: 72 h
Method: (§2)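 DSRT, CellTiter-Blue viability, 72 h incubation. Signal is normalised to DMSO and benzethonium chloride controls. Value is the normalised response at dose 3.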

DU-4475 [7] = experiment: as above; conditions: 1 nM; incubation time: 72 h
Method: as §2

BT-474 = experiment: as above; conditions: 10 nM; incubation time: 72 h
Method: as §2

SK-BR-3 [8] = experiment: as above; conditions: 10 nM; incubation time: 72 h
Method: as §2

MFM-223 = experiment: as above; conditions: 10 nM; incubation time: 72 h
Method: as §2

HDQ-P1 = experiment: as above; conditions: 1 nM; incubation time: 72 h
Method: as §2

HCC1599 [9] = experiment: as above; conditions: 10 nM; incubation time: 72 h
Method: as §2

MDA-MB-436 [10] = experiment: as above; conditions: 10 nM; incubation time: 72 h
Method: as §2

Hs578T = experiment: as above; conditions: 10 nM; incubation time: 72 h
Method: as §2

CAL-148 [11] = experiment: as above; conditions: 1 nM; incubation time: 72 h
Method: as §2

BT-549 = experiment: as above; conditions: 10 nM; incubation time: 72 h
Method: as §2

HCC1937 = experiment: as above; conditions: 10 nM; incubation time: 72 h
Method: as §2

MDA-MB-231 = experiment: as above; conditions: 10 nM; incubation time: 72 h
Method: as §2

CAL-85-1 [12] = experiment: as above; conditions: 1 nM; incubation time: 72 h
Method: as §2

MDA-MB-453 = experiment: as above; conditions: 1 nM; incubation time: 72 h
Method: as §2

CAL-51 [13] = experiment: as above; conditions: 1 nM; incubation time: 72 h
Method: as §2

MDA-MB-468 [14] = experiment: as above; conditions: 10 nM; incubation time: 72 h
Method: as §2

HCC1143 [15] = experiment: as above; conditions: 10 nM; incubation time: 72 h
Method: as §2

DU-4475 [16] = experiment: normalised viability (% of control), CellTiter-Blue; higher = more viable cells (about 100 = DMSO control); conditions: 30 nM; incubation time: 72 h
Summary of the method: (§3)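 Compound dissolved in 5 µl medium was pre-loaded into 384-well plates, and breast cancer cell lines in 20 µl suspension were seeded on top and incubated 72 h. After adding 2.5 µl CellTiter-Blue reagent for 2 h at 37 °C, fluorescence was read at 560/590 nm. Plates were normalised to vehicle (100) and a positive kill control (0), with Z'-factor quality control. Each value is normalised viability at a single listed concentration from the series.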

CAL-148 [17] = experiment: as above; conditions: 30 nM; incubation time: 72 h
Summary of the method: as §3

CAL-85-1 [18] = experiment: as above; conditions: 30 nM; incubation time: 72 h
Summary of the method: as §3

CAL-51 [19] = experiment: as above; conditions: 30 nM; incubation time: 72 h
Summary of the method: as §3

Q: For `O=C(/C=C/c1cccnc1)NCCCCC1CCN(C(=O)c2ccccc2)CC1` [Daporinad], which drug sensitivity score (SK-BR-3 [1]) is on record?
A: 0

Q: What about the drug sensitivity score (HCC1599 [2]) of the same compound?
A: 29.4

Q: And the drug sensitivity score (MDA-MB-436 [3])?
A: 8.81

Q: What about the drug sensitivity score (CAL-148 [4]) of the same compound?
A: 6.26

Q: What about the drug sensitivity score (MCF-10A) of the same compound?
A: 23.2

Q: And the drug sensitivity score (MDA-MB-468 [5])?
A: 30

Q: What about the drug sensitivity score (HCC1143 [6]) of the same compound?
A: 22.2

Q: Which results are given for `O=C(/C=C/c1cccnc1)NCCCCC1CCN(C(=O)c2ccccc2)CC1` [FK-866]?
A: normalised viability (CAL-120): 55%; normalised viability (DU-4475 [7]): 84.9%; normalised viability (BT-474): 91.6%; normalised viability (SK-BR-3 [8]): 91.2%; normalised viability (MFM-223): 23.2%; normalised viability (HDQ-P1): 120%; normalised viability (HCC1599 [9]): 74.7%; normalised viability (MDA-MB-436 [10]): 38%; normalised viability (Hs578T): 20.1%; normalised viability (CAL-148 [11]): 91.5%; normalised viability (BT-549): 38.6%; normalised viability (HCC1937): 91.1%; normalised viability (MDA-MB-231): 83.1%; normalised viability (CAL-85-1 [12]): 103%; normalised viability (MDA-MB-453): 86.1%; normalised viability (CAL-51 [13]): 102%; normalised viability (MDA-MB-468 [14]): 8.4%; normalised viability (HCC1143 [15]): 43.2%; normalised viability (DU-4475 [16]): 31.4%; normalised viability (CAL-148 [17]): 73.7%; normalised viability (CAL-85-1 [18]): 72.4%; normalised viability (CAL-51 [19]): 48.8%

Q: Which drug sensitivity score (SK-BR-3 [1]) does the source give for `CNC(=O)c1cc(Oc2ccc(NC(=O)Nc3cc(C(C)(C)C)nn3-c3ccc4ncccc4c3)c(F)c2)ccn1` [Rebastinib] here?
A: 0

Q: What about the drug sensitivity score (HCC1599 [2]) of the same compound?
A: 0

Q: What about the drug sensitivity score (MDA-MB-436 [3]) of the same compound?
A: 0

Q: What about the drug sensitivity score (CAL-148 [4]) of the same compound?
A: 0

Q: And the drug sensitivity score (MCF-10A)?
A: 0

Q: And the drug sensitivity score (MDA-MB-468 [5])?
A: 0

Q: What about the drug sensitivity score (HCC1143 [6]) of the same compound?
A: 0

Q: What does the source list for `Cc1cnc(NC(=O)Nc2cc(Br)c(C)cc2OC[C@@H]2CNCCO2)cn1`?
A: normalised viability (CAL-120): 87.9%; normalised viability (DU-4475 [7]): 90.8%; normalised viability (BT-474): 101%; normalised viability (SK-BR-3 [8]): 88.3%; normalised viability (MFM-223): 89.6%; normalised viability (HDQ-P1): 90.1%; normalised viability (HCC1599 [9]): 122%; normalised viability (MDA-MB-436 [10]): 112%; normalised viability (Hs578T): 101%; normalised viability (CAL-148 [11]): 90.3%; normalised viability (BT-549): 87.3%; normalised viability (HCC1937): 127%; normalised viability (MDA-MB-231): 103%; normalised viability (CAL-85-1 [12]): 91.4%; normalised viability (MDA-MB-453): 104%; normalised viability (CAL-51 [13]): 95%; normalised viability (MDA-MB-468 [14]): 104%; normalised viability (HCC1143 [15]): 82.5%; normalised viability (DU-4475 [16]): 106%; normalised viability (CAL-148 [17]): 91.7%; normalised viability (CAL-85-1 [18]): 92%; normalised viability (CAL-51 [19]): 95.7%

Q: Which drug sensitivity score (SK-BR-3 [1]) does the source give for `C=CCc1cccc(/C=N/NC(=O)CN2CCN(Cc3ccccc3)CC2)c1O` [PAC-1] here?
A: 3.2

Q: And the drug sensitivity score (HCC1599 [2])?
A: 1.71

Q: And the drug sensitivity score (MDA-MB-436 [3])?
A: 5.19

Q: What about the drug sensitivity score (CAL-148 [4]) of the same compound?
A: 2.16

Q: And the drug sensitivity score (MCF-10A)?
A: 0

Q: And the drug sensitivity score (MDA-MB-468 [5])?
A: 3.77

Q: What about the drug sensitivity score (HCC1143 [6]) of the same compound?
A: 1.38

Q: Which results are given for `C=CC(=O)N1CCC[C@@H](n2nc(-c3ccc(Oc4ccccc4)cc3)c3c(N)ncnc32)C1` [Ibrutinib]?
A: drug sensitivity score (SK-BR-3 [1]): 17.4; drug sensitivity score (HCC1599 [2]): 0; drug sensitivity score (MDA-MB-436 [3]): 0; drug sensitivity score (CAL-148 [4]): 0; drug sensitivity score (MCF-10A): 4.67; drug sensitivity score (MDA-MB-468 [5]): 0.811; drug sensitivity score (HCC1143 [6]): 0
